Molecular target: PMN LTB4 receptor (Homo sapiens, UniProt Q15722)
Experiment: LTB4 Human Neutrophil (PMN) Binding Assay
Procedure: Heparinized blood was placed on a ficol gradient followed by its sedimentation with dextran. […] The PMN solution was adjusted to achieve a concentration of 8 X 10^6 PMN/ml. […] Very briefly, the assay was performed as follows; [3H]LTB4 (1 nM) and test agent were placed into a 96 well microplate with filters (0.65 µm pore size). PMN solution (8 x 10^6/ml) was added and the microplate incubated for 10 min at 4° C. The microplate was then placed on Millipore filtration system; the wells washed with cold saline (3 x) and dried. The filters were removed from the microplate; placed into scintillation fluid and the concentration of [3H]LTB4 determined.

Sequence of PMN LTB4 receptor (Q15722 whole entry): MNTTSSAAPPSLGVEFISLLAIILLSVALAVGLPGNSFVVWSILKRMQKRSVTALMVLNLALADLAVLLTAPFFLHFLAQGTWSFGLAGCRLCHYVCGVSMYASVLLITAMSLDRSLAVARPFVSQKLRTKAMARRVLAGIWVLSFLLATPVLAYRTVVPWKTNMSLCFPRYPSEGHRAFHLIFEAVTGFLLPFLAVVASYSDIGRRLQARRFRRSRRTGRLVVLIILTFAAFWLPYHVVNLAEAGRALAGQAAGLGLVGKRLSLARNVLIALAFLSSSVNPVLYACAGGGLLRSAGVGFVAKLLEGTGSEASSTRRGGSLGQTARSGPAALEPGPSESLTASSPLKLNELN

CCc1cc(-c2ccc(F)cc2)c(O)cc1OCCCCC(C)(C)CNC(=O)c1ccc(NN=Cc2ccccc2)nc1 [IIa]
Ki: 8 nM

— patent publication EP0999856B1, “RADIOPHARMACEUTICALS FOR IMAGING INFECTION AND INFLAMMATION” (Bristol-Myers Squibb Pharma Company, priority 1996, dated 1998)
